We go through eight compounds from ChEMBL document CHEMBL1148685, “3,4-Dihydro-1H-[1,3]oxazino[4,5-c]acridines as a new family of cytotoxic drugs” (Bioorg Med Chem Lett, 2006).

What all share (assay type): functional, cell-based
Conditions in all cases: Homo sapiens

In assay [1] the test system is HT-29. In words: Cytotoxicity against HT29 cells in presence of Escherichia coli nitroreductase.
Assay [2] has as its system HT-29. Nature of the assay: Cytotoxicity against HT29 cells in hypoxic condition after 5 hrs.
Assay [3] deals with HT-29. Nature of the assay: Cytotoxicity against HT29 cell line.

Each structure is given as a SMILES string. Calls of active or inactive are those of the source. The calls are words filed in the database; no cut-off is given here.

Regarding `O=[N+]([O-])c1ccc(C2Nc3ccc4cc5ccccc5nc4c3CO2)cc1` (stereo not given), the concentration for half-maximal inhibition (IC50) was determined as 0.2 µM in assay [1] and 2.3 µM in assay [3]. Also, the result in assay [2] was inactive.

Turning to `c1ccc(C2Nc3ccc4cc5ccccc5nc4c3CO2)cc1` (stereo not given), half-maximal inhibition in assay [3] (IC50) was put at 0.4 µM.

`COc1cccc2c1C(=O)c1c(O)c3c(c(O)c1C2=O)C[C@@](O)(C(=O)CO)C[C@@H]3O[C@H]1C[C@H](N)[C@H](O)[C@H](C)O1` [DOXORUBICIN] showed an IC50 in assay [3] of 2.37 µM.

Consider `BrCC1Nc2ccc3cc4ccccc4nc3c2CO1` (stereo not given), for which the IC50 in assay [3] amounted to 1.25 µM.

`ClCC1Nc2ccc3cc4ccccc4nc3c2CO1` (stereo not given) displayed an IC50 in assay [3] of 1.25 µM.

As to `c1ccc2nc3c4c(ccc3cc2c1)NCOC4`, the IC50 in assay [3] was found to be 2.25 µM.

In turn, `CC1Nc2ccc3cc4ccccc4nc3c2CO1` (stereo not given) returned an IC50 in assay [3] of 0.6 µM.

On to `c1ccc(COCC2Nc3ccc4cc5ccccc5nc4c3CO2)cc1` (stereo not given), for which, in assay [3], the IC50 worked out at 4 µM.
